Measured values taken from PubChem BioAssay AID1845215 (Molecular Pharmacology Branch, DTP, NCI, 2023).

Test system: SW 1271 complex tumor spheroid viability
Experiment: Anticancer human tumor SW 1271 cell line growth inhibition;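 further: spheroids exposed to agents for seven days before readout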;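 on viability, T/C: percent of DMSO vehicle control luminescence so 100% = vehicle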
Conditions: for IC50: curve of first compound; for viability, T/C: stronger effect = lower value
Procedure, shortened: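 Single agents and combinations were tested on spheroids built from tumor cells plus HUVEC and hMSC, at half-log dilutions starting at or near clinical Cmax, else 10 microM; final DMSO 0.25% (v/v).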

Cc1cc(C)c(CNC(=O)c2cc(-c3ccc(CN4CCOCC4)cc3)cc3c2cnn3C2CCCC2)c(=O)[nH]1 + Cn1nnc2c(C(N)=O)ncn2c1=O
IC50 (second compound 1 µM): > 10 µM | IC50 (second compound 3.16 µM): > 10 µM | IC50 (second compound 10 µM): > 10 µM | IC50 (second compound 31.6 µM): > 10 µM | IC50 (second compound 100 µM): > 10 µM | viability, T/C (second compound 1 µM, first compound 0.0316 µM): 98.6% | viability, T/C (second compound 1 µM, first compound 0.1 µM): 92.6% | viability, T/C (second compound 1 µM, first compound 0.316 µM): 93.5% | viability, T/C (second compound 1 µM, first compound 1 µM): 91.5% | viability, T/C (second compound 1 µM, first compound 3.16 µM): 88.7% | viability, T/C (second compound 1 µM, first compound 10 µM): 73.1% | viability, T/C (second compound 3.16 µM, first compound 0.0316 µM): 93.7% | viability, T/C (second compound 3.16 µM, first compound 0.1 µM): 101% | viability, T/C (second compound 3.16 µM, first compound 0.316 µM): 95.3% | viability, T/C (second compound 3.16 µM, first compound 1 µM): 99.2% | viability, T/C (second compound 3.16 µM, first compound 3.16 µM): 83.9% | viability, T/C (second compound 3.16 µM, first compound 10 µM): 79.1% | viability, T/C (second compound 10 µM, first compound 0.0316 µM): 97.7% | viability, T/C (second compound 10 µM, first compound 0.1 µM): 91.7% | viability, T/C (second compound 10 µM, first compound 0.316 µM): 98.8% | viability, T/C (second compound 10 µM, first compound 1 µM): 96.7% | viability, T/C (second compound 10 µM, first compound 3.16 µM): 81.5% | viability, T/C (second compound 10 µM, first compound 10 µM): 76.2% | viability, T/C (second compound 31.6 µM, first compound 0.0316 µM): 106% | viability, T/C (second compound 31.6 µM, first compound 0.1 µM): 103% | viability, T/C (second compound 31.6 µM, first compound 0.316 µM): 102% | viability, T/C (second compound 31.6 µM, first compound 1 µM): 100% | viability, T/C (second compound 31.6 µM, first compound 3.16 µM): 74.5% | viability, T/C (second compound 31.6 µM, first compound 10 µM): 62% | viability, T/C (second compound 100 µM, first compound 0.0316 µM): 91.8% | viability, T/C (second compound 100 µM, first compound 0.1 µM): 90.4% | viability, T/C (second compound 100 µM, first compound 0.316 µM): 79.8% | viability, T/C (second compound 100 µM, first compound 1 µM): 81.7% | viability, T/C (second compound 100 µM, first compound 3.16 µM): 70.7% | viability, T/C (second compound 100 µM, first compound 10 µM): 52.7%

O=C(c1cc(Cc2n[nH]c(=O)c3ccccc23)ccc1F)N1CCN(C(=O)C2CC2)CC1 + Cn1nnc2c(C(N)=O)ncn2c1=O
IC50 (second compound 1 µM): 2.2 µM | IC50 (second compound 3.16 µM): 2.11 µM | IC50 (second compound 10 µM): 1.64 µM | IC50 (second compound 31.6 µM): 0.443 µM | IC50 (second compound 100 µM): < 0.0949 µM | viability, T/C (second compound 1 µM, first compound 0.0949 µM): 95.3% | viability, T/C (second compound 1 µM, first compound 0.3 µM): 78.7% | viability, T/C (second compound 1 µM, first compound 0.949 µM): 69.1% | viability, T/C (second compound 1 µM, first compound 3 µM): 45.7% | viability, T/C (second compound 1 µM, first compound 9.49 µM): 24.4% | viability, T/C (second compound 1 µM, first compound 30 µM): 32.5% | viability, T/C (second compound 3.16 µM, first compound 0.0949 µM): 86.3% | viability, T/C (second compound 3.16 µM, first compound 0.3 µM): 82.2% | viability, T/C (second compound 3.16 µM, first compound 0.949 µM): 70.7% | viability, T/C (second compound 3.16 µM, first compound 3 µM): 41% | viability, T/C (second compound 3.16 µM, first compound 9.49 µM): 33% | viability, T/C (second compound 3.16 µM, first compound 30 µM): 34.4% | viability, T/C (second compound 10 µM, first compound 0.0949 µM): 95.6% | viability, T/C (second compound 10 µM, first compound 0.3 µM): 86.2% | viability, T/C (second compound 10 µM, first compound 0.949 µM): 63.2% | viability, T/C (second compound 10 µM, first compound 3 µM): 34.5% | viability, T/C (second compound 10 µM, first compound 9.49 µM): 34.4% | viability, T/C (second compound 10 µM, first compound 30 µM): 27% | viability, T/C (second compound 31.6 µM, first compound 0.0949 µM): 82.5% | viability, T/C (second compound 31.6 µM, first compound 0.3 µM): 58.1% | viability, T/C (second compound 31.6 µM, first compound 0.949 µM): 33.9% | viability, T/C (second compound 31.6 µM, first compound 3 µM): 33.1% | viability, T/C (second compound 31.6 µM, first compound 9.49 µM): 33.5% | viability, T/C (second compound 31.6 µM, first compound 30 µM): 27.6% | viability, T/C (second compound 100 µM, first compound 0.0949 µM): 35.1% | viability, T/C (second compound 100 µM, first compound 0.3 µM): 26.4% | viability, T/C (second compound 100 µM, first compound 0.949 µM): 29% | viability, T/C (second compound 100 µM, first compound 3 µM): 32.2% | viability, T/C (second compound 100 µM, first compound 9.49 µM): 28.8% | viability, T/C (second compound 100 µM, first compound 30 µM): 28.2%

Cc1sc2c(c1C)C(c1ccc(Cl)cc1)=NC(CC(=O)Nc1ccc(O)cc1)c1nnc(C)n1-2 (stereo not given) + COc1cc2c(cc1O)CCNC21CSC2c3c(OC(C)=O)c(C)c4c(c3C(COC1=O)N1C(O)C3Cc5cc(C)c(OC)c(O)c5C(C21)N3C)OCO4
IC50 (second compound 30 pM): 0.145 µM | IC50 (second compound 94.9 pM): 0.0416 µM | IC50 (second compound 0.0003 µM): < 0.00949 µM | IC50 (second compound 0.000949 µM): < 0.00949 µM | IC50 (second compound 0.003 µM): < 0.00949 µM | viability, T/C (second compound 30 pM, first compound 0.00949 µM): 101% | viability, T/C (second compound 30 pM, first compound 0.03 µM): 108% | viability, T/C (second compound 30 pM, first compound 0.0949 µM): 74.3% | viability, T/C (second compound 30 pM, first compound 0.3 µM): 8.06% | viability, T/C (second compound 30 pM, first compound 0.949 µM): 1.02% | viability, T/C (second compound 30 pM, first compound 3 µM): 0.91% | viability, T/C (second compound 94.9 pM, first compound 0.00949 µM): 76.2% | viability, T/C (second compound 94.9 pM, first compound 0.03 µM): 57.9% | viability, T/C (second compound 94.9 pM, first compound 0.0949 µM): 28.9% | viability, T/C (second compound 94.9 pM, first compound 0.3 µM): 5.41% | viability, T/C (second compound 94.9 pM, first compound 0.949 µM): 1.12% | viability, T/C (second compound 94.9 pM, first compound 3 µM): 0.93% | viability, T/C (second compound 0.0003 µM, first compound 0.00949 µM): 30.6% | viability, T/C (second compound 0.0003 µM, first compound 0.03 µM): 23.9% | viability, T/C (second compound 0.0003 µM, first compound 0.0949 µM): 13.5% | viability, T/C (second compound 0.0003 µM, first compound 0.3 µM): 2.97% | viability, T/C (second compound 0.0003 µM, first compound 0.949 µM): 1.45% | viability, T/C (second compound 0.0003 µM, first compound 3 µM): 0.77% | viability, T/C (second compound 0.000949 µM, first compound 0.00949 µM): 6.61% | viability, T/C (second compound 0.000949 µM, first compound 0.03 µM): 6.28% | viability, T/C (second compound 0.000949 µM, first compound 0.0949 µM): 2.99% | viability, T/C (second compound 0.000949 µM, first compound 0.3 µM): 1.78% | viability, T/C (second compound 0.000949 µM, first compound 0.949 µM): 0.1% | viability, T/C (second compound 0.000949 µM, first compound 3 µM): 0.09% | viability, T/C (second compound 0.003 µM, first compound 0.00949 µM): 0.11% | viability, T/C (second compound 0.003 µM, first compound 0.03 µM): 0.11% | viability, T/C (second compound 0.003 µM, first compound 0.0949 µM): 0.11% | viability, T/C (second compound 0.003 µM, first compound 0.3 µM): 0.11% | viability, T/C (second compound 0.003 µM, first compound 0.949 µM): 0.09% | viability, T/C (second compound 0.003 µM, first compound 3 µM): 0.17%
